Drawing on PubChem BioAssay (NCI), this text covers TGI for 13 compounds.

Experiment in all cases: DTP human tumour cell line panel, 48 h
Experiment [1] has as its system TK-10 renal.
Experiment [2] relates to 786-0 renal.
Experiment [3] deals with HCT-116 colon.
For experiment [4], the system named is NCI/ADR-RES ovarian.
The test system of experiment [5] is MDA-N.
Experiment [6] concerns BT-549 breast.
In experiment [7] the test system is OVCAR-3 ovarian.
For experiment [8], the system named is HT29 colon.
The test system of experiment [9] is NCI-H23 lung.
In experiment [10] the test system is MCF7 breast.
Experiment [11] relates to SK-MEL-2 melanoma.
Experiment [12] deals with SK-MEL-5 melanoma.
The test system of experiment [13] is CAKI-1 renal.
In experiment [14] the test system is A498 renal.
Experiment [15] relates to PC-3 prostate.
Experiment [16] deals with M14 melanoma.

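The compound was tested at five concentrations on cells cultured in 96-well plates, with a 48-hour exposure period. At the TGI there is no net growth.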

For orientation: TGI means the concentration giving total growth inhibition. A lower TGI goes with greater sensitivity of the cells. As for `CC(=O)N1N=C(c2ccc3ccccc3c2O)CC1c1ccc(Cl)cc1Cl` (stereo not drawn), the TGI in experiment [1], in experiment [2], in experiment [3], in experiment [4], in experiment [5] and in experiment [6] was above 100 µM each time. Besides, the TGI in experiment [7], in [8], in [9], in [10], in [11] and in experiment [12] was above 100 µM each time. In addition, the TGI in [13], in experiment [14], in experiment [15] and in experiment [16] was above 100 µM each time.
For the compound `O=C(Nc1ccc(Cl)cc1Cl)c1cc2nc3ccccc3c(=O)n2c2ccccc12`, the TGI in experiment [1], in [2], in experiment [3], in experiment [4], in experiment [5] and in [6] was above 10 µM in each case. Also, the TGI in experiment [7], in [8], in experiment [9], in experiment [10], in experiment [11] and in experiment [12] was above 10 µM each time. For the same compound, the TGI in [13], in experiment [14], in experiment [15] and in [16] was above 10 µM each time.
As for `Clc1cc2nnn(C3CCCCO3)c2cc1Cl` (stereo not drawn), the TGI in experiment [1], in experiment [2], in experiment [3], in experiment [4], in experiment [5] and in experiment [6] was above 100 µM each time. Also, the TGI in experiment [7], in [8], in experiment [9], in experiment [10], in [11] and in experiment [12] was above 100 µM throughout. The TGI in experiment [13], in [14], in [15] and in experiment [16] was above 100 µM each time.
`Cc1ccc(C)c(NC(=O)/C(=N\N)C(c2cnc3ccc([N+](=O)[O-])cc3n2)[N+](=O)[O-])c1` (stereo not drawn): the TGI in [1], in experiment [2], in experiment [3], in experiment [4], in experiment [5] and in experiment [6] was above 100 µM throughout. For the same compound, the TGI in experiment [7], in experiment [8], in [9], in [10], in experiment [11] and in experiment [12] was above 100 µM in each case. The TGI in experiment [13], in experiment [14], in experiment [15] and in [16] was above 100 µM each time.
Take `C[C@]12CC[C@H]3[C@@H](CC=C4C[C@@H](O)CC[C@@]43C)[C@@H]1C[C@H](N1CCOCC1)[C@@H]2O`: the TGI in experiment [1], in experiment [2], in experiment [3], in experiment [4], in [5] and in experiment [6] was above 100 µM each time. In addition, the TGI in experiment [7], in [8], in experiment [9], in experiment [10], in experiment [11] and in experiment [12] was above 100 µM throughout. The TGI in [13], in experiment [14], in [15] and in experiment [16] was above 100 µM in each case.
For the compound `O=C1NC(=O)/C(=C/c2ccc(S(=O)(=O)N/N=C/c3ccccc3)cc2)N1`, the TGI in experiment [1], in experiment [2], in [3], in experiment [4], in experiment [5] and in [6] was above 100 µM in each case. Moreover, the TGI in experiment [7], in experiment [8], in experiment [9], in experiment [10], in experiment [11] and in experiment [12] was above 100 µM each time. For the same compound, the TGI in [13], in [14], in experiment [15] and in experiment [16] was above 100 µM each time.
Take `Nc1nc(Cl)cc(NCC2(CO)CC(c3ccccc3)C2)n1` (stereo not drawn): the TGI in experiment [1] is above 100 µM; in experiment [2] it was above 100 µM; in experiment [3], above 100 µM; in experiment [4] it was 92.2 µM; in experiment [5], above 100 µM; in [6], above 100 µM. Also, the TGI in experiment [7] is above 100 µM; in experiment [8], above 100 µM; in [9], above 100 µM; in [10], above 100 µM; in experiment [11], above 100 µM; in experiment [12], 29.4 µM. Further, the TGI in [13], in experiment [14], in [15] and in experiment [16] was above 100 µM each time.
For `CSc1ncc2c(C#N)c3ccccn3c(=O)c2n1`, the TGI in experiment [1], in [2], in experiment [3], in experiment [4], in experiment [5] and in experiment [6] was above 100 µM each time. For the same compound, the TGI in experiment [7], in experiment [8], in [9], in [10], in experiment [11] and in [12] was above 100 µM throughout. The TGI in experiment [13], in experiment [14], in experiment [15] and in experiment [16] was above 100 µM in each case.
For `CC(C)CNC(=O)c1c(NC(=O)c2ccccc2)sc2[nH]c(=O)n(-c3ccccc3)c(=O)c12`, the TGI was 75 µM in [1]; 53.6 µM in experiment [2]; above 100 µM in experiment [3]; above 100 µM in experiment [4]; above 100 µM in experiment [5]; 77.4 µM in [6]. Besides, the TGI in [7] was above 100 µM; in [8] it was above 100 µM; in experiment [9], above 100 µM; in experiment [10], above 100 µM; in experiment [11] it was 68.6 µM; in [12], above 100 µM. The TGI is above 80.9 µM in experiment [13], above 71.2 µM in experiment [14], above 100 µM in [15] and above 100 µM in experiment [16].
As to `COc1ccc(/C=N/NS(=O)(=O)c2ccc(/C=C3\NC(=O)N(C)C3=O)cc2)cc1`, the total growth inhibition concentration (TGI) in experiment [1], in [2], in [3], in experiment [4], in [5] and in [6] was above 100 µM throughout. The TGI in [7], in [8], in experiment [9], in experiment [10], in experiment [11] and in [12] was above 100 µM throughout. Besides, the TGI in experiment [13], in experiment [14], in experiment [15] and in [16] was above 100 µM in each case.
For the compound `Nc1ncnc2c1ccn2CC=C(CO)CO`, the concentration for total growth inhibition (TGI) in [1], in [2], in experiment [3], in experiment [4], in [5] and in experiment [6] was above 100 µM each time. The TGI in [7], in experiment [8], in experiment [9], in [10], in experiment [11] and in experiment [12] was above 100 µM each time. Besides, the TGI in experiment [13], in [14], in experiment [15] and in experiment [16] was above 100 µM throughout.
Consider `[O-]/N=N\c1on[n+](CCc2ccccc2)c1Cc1c(/N=N/[O-])on[n+]1CCc1ccccc1`, for which the TGI in [1] was 56.2 µM; in [2], 47.5 µM; in experiment [3], above 100 µM; in experiment [4], above 100 µM; in experiment [5] it was above 100 µM; in experiment [6], 78.1 µM. In addition, the TGI in experiment [7] was 39.8 µM; in experiment [8] it was above 100 µM; in experiment [9] it was 61.3 µM; in experiment [10], above 100 µM; in experiment [11], 94 µM; in [12], 88 µM. In addition, the TGI in experiment [13], in experiment [14], in experiment [15] and in experiment [16] was above 100 µM in each case.
Consider `O=[N+]([O-])c1ccc(OP(=O)(O)OCC2OC(CP(=O)(O)O)C(O)C2O)cc1` (stereo not drawn), for which the TGI in experiment [1], in experiment [2], in experiment [3], in [4], in experiment [5] and in experiment [6] was above 100 µM throughout. Besides, the TGI in [7], in [8], in [9], in experiment [10], in experiment [11] and in experiment [12] was above 100 µM throughout. Also, the concentration for total growth inhibition (TGI) in experiment [13], in experiment [14], in experiment [15] and in experiment [16] was above 100 µM each time.
